Laboratory results as given in patent EP4603105A1, “PHARMACEUTICAL COMPOSITION CONTAINING CYCLIC COMPOUND HAVING SELECTIVE KRAS INHIBITORY EFFECT AGAINST HRAS AND NRAS” (CHUGAI SEIYAKU KABUSHIKI KAISHA, priority 2022, dated 2024).
Read-outs that look alike come from different tables or passages of the source. *1 amine or outer side, *2 acyl side, *3 side chain or, on linkers, in order; H or OH if unused. Where a SMILES comes first, the peptide text is derived from it. Bridges are numbered along the chain shown (N, C = ends). [ ]: non-standard residue; d: D form. The star is where a group is joined. hPhe(3,5-F2-4-CF3) = N[C@@H](CCc1cc(F)c(C(F)(F)F)c(F)c1)C(=O)O; hPhe(3-Cl-4-CF3) = N[C@@H](CCc1ccc(C(F)(F)F)c(Cl)c1)C(=O)O; NPrPhe(4-CF3) = CCCN[C@@H](Cc1ccc(C(F)(F)F)cc1)C(=O)O; Morpholine(3S-CO) = O=C(O)[C@@H]1COCCN1; NMeGly(cPent) = CN[C@H](C(=O)O)C1CCCC1; X3 = CCC[C@](C)(N[*:1])C(=O)[*:2]; NMeD = CN[C@@H](CC(=O)O)C(=O)O; NMeL = CN[C@@H](CC(C)C)C(=O)O; Morpholide = C1CN(*)CCO1; Ac5c = NC1(C(=O)O)CCCC1; Aze = O=C(O)[C@@H]1CCN1; Sar = CNCC(=O)O

Tests used:
[1] = biological target: GDP-bound KRAS wild-type protein (Homo sapiens, UniProt P01116); assay: Binding to KRAS by surface plasmon resonance (SPR), dissociation constant KD
Outline: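 Recombinant RAS proteins bearing a biotinylated Avi tag and loaded with GDP served as the captured ligand, recaptured fresh every cycle. Binding responses were referenced to an uncoated surface and a buffer-only blank cycle. Dissociation constants were obtained by 1:1 model fitting at 30°C.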

[2] = biological target: GDP-bound NRAS wild-type protein (Homo sapiens, UniProt P01111); assay: Binding to NRAS by surface plasmon resonance (SPR), KD and KD ratio to KRAS
Outline: (§1)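 Each cycle, GDP-bound biotin-Avi RAS was captured (~100–300 RU), compound concentrations were injected low to high for 75 s each at 100 µL/min, then the chip was regenerated. Buffer: HBS pH 7.4, 10 mM MgCl2, 10 µM GDP, 1 mM DTT, 4% DMSO; 30°C. KD from a 1:1 binding model.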

HRAS wild-type protein = HRAS wild-type protein (Homo sapiens, UniProt P01112); assay: Binding to HRAS by surface plasmon resonance (SPR), KD and KD ratio to KRAS
Outline: as §1

[3] = tested on: human lung cancer strain NCI-H441; type: cell-based
Outline: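 Signal came from […] measured per well once the reagent was added. Beforehand, cells were cultured at 37°C and 5% carbon dioxide on a compound series serially diluted in dimethyl sulfoxide.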

[4] = ratio of KD for GDP-bound NRAS wild-type protein to KD for KRAS
[5] = ratio of KD for HRAS wild-type protein to KD for KRAS
[6] = Single Cycle Kinetics, 1:1 binding model
[7] = ratio of KD value for GDP-bound NRAS wild-type protein to KD value for KRAS (SPR)
[8] = ratio of KD value for HRAS wild-type protein to KD value for KRAS (SPR)
[9] = ratio of the KD value with respect to GDP-bound NRAS wild-type protein to the KD value with respect to KRAS
[10] = ratio of the KD value with respect to HRAS wild-type protein to the KD value with respect to KRAS

Chain of GDP-bound NRAS wild-type protein (P01111 whole entry): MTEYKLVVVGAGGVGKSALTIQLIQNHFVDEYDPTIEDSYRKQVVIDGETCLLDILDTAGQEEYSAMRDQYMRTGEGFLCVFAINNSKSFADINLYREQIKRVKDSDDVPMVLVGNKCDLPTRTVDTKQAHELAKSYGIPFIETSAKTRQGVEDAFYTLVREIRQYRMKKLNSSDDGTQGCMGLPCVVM
Chain of HRAS wild-type protein (P01112 whole entry): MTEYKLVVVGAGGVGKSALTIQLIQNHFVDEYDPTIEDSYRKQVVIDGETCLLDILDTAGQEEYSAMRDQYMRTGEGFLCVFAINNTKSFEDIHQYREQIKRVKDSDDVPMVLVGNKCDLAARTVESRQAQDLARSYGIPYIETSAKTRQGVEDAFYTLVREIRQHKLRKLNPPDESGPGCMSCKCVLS
Chain of GDP-bound KRAS wild-type protein (P01116 1-188 isoform P01116-2): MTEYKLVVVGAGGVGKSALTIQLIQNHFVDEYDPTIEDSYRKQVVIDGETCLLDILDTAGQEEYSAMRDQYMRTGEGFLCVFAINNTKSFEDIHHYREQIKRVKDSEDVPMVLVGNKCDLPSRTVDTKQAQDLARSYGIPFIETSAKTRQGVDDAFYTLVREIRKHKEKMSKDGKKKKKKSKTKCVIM

SMILES	Kd ([1]; 1:1 binding model)	NRAS /KRAS [2, 4]	HRAS /KRAS (HRAS wild-type protein; [5])	IC50 [3]	Kd ([1]; Single Cycle Kinetics)	Kd [1, 6]	NRAS /KRAS [2, 7]	HRAS /KRAS (HRAS wild-type protein; [8])	IC50 ([3]; NCI-H441 cells, 4 days, CellTiter-Glo, read-out: NCl-H441 IC50)	NRAS /KRAS [2, 9]	HRAS /KRAS (HRAS wild-type protein; [10])
CCCN1C(=O)[C@@H]2CCN2C(=O)[C@@H]2CCN2C(=O)[C@H]([C@@H](C)CC)NC(=O)[C@H](CC(C)C)N(C)C(=O)C[C@@H](C(=O)N2CCOCC2)N(C)C(=O)[C@H](C2CCCC2)N(C)C(=O)C2(CCCC2)NC(=O)[C@@H]2CCCN2C(=O)[C@H](CCc2ccc(C(F)(F)F)c(Cl)c2)NC(=O)CN(C)C(=O)[C@@H]1Cc1ccc(C(F)(F)F)cc1 [PP0168] ([NMeL]I[Aze][Aze][NPrPhe(4-CF3)][Sar][hPhe(3-Cl-4-CF3)]P[Ac5c][NMeGly(cPent)][NMeD]-Morpholide; lactam N-11)	0.67 nM	C (A compound having a KD ratio of 0.1 or more and less than 3 is denoted as C)	B (a compound having 3 or more and less than 10 is denoted as B)	26.6 nM	–	–	–	–	–	–	–
CCO[C@@H]1C[C@H]2C(=O)NC3(CCC3)C(=O)N(C)[C@@H](C3CCCC3)C(=O)N(C)[C@H](C(=O)N(C)C)CC(=O)N(C)[C@@H](CC)C(=O)N[C@@H]([C@@H](C)CC)C(=O)N(C)CC(=O)N(C)[C@H]3CCCCN(C3=O)[C@@H](Cc3ccc(C(F)(F)F)cc3)C(=O)N(C)CC(=O)N[C@@H](CCc3ccc4ccsc4c3)C(=O)N2C1 [PP0888]	–	C (A compound having a KD ratio of 0.1 or more and less than 3 is denoted as C)	B (a compound having 3 or more and less than 10 is denoted as B)	25.6 nM	0.17 nM	–	–	–	–	–	–
CCC[C@H]1C(=O)N[C@@H]([C@@H](C)CC)C(=O)N(C)CC(=O)N(C)[C@H]2C/C=C\CCN(C2=O)[C@@H](Cc2ccc(C(F)(F)F)cc2)C(=O)N(C)CC(=O)N[C@@H](CCc2ccc(C(F)(F)F)c(Cl)c2)C(=O)N2CC3(CC3)C[C@H]2C(=O)NC2(CC(C)(C)C2)C(=O)N(C)[C@@H](CC(F)(F)F)C(=O)N(C)[C@H](C(=O)N(C)C)CC(=O)N1C [PP2985]	1.4 nM	AA (a compound having 20 or more is denoted as AA)	A (a compound having 10 or more and less than 20 is denoted as A)	46.5 nM	–	–	–	–	–	–	–
C=CC[C@@H]1NC(=O)[C@H](CC2CC2)N(C)C(=O)C[C@@H](C(=O)N(C)CC=C)N(C)C(=O)[C@H](C2CCCC2)N(C)C(=O)C2(CCC2)NC(=O)[C@@H]2C[C@@H](OCC)CN2C(=O)[C@H](CCc2cc(F)c(C(F)(F)F)c(F)c2)NC(=O)CN(C)C(=O)[C@H](Cc2ccc(C(F)(F)F)cc2)N2CC/C=C\C[C@@H](C2=O)N(C)C(=O)CN(C)C1=O [PP1557]	–	–	–	86.3 nM	–	1.2 nM	A (a compound having 10 or more and less than 20 is denoted as A)	A (a compound having 10 or more and less than 20 is denoted as A)	–	–	–
CCCN1C(=O)CN(C)C(=O)[C@@H]2CCN2C(=O)[C@H]([C@@H](C)CC)NC(=O)[C@H](CC(C)C)N(C)C(=O)C[C@@H](C(=O)N2CCOCC2)N(C)C(=O)[C@H](C2CCCC2)N(C)C(=O)[C@](C)(CCC)NC(=O)[C@@H]2CCCN2C(=O)[C@H](CCc2cc(F)c(C(F)(F)F)c(F)c2)NC(=O)CN(C)C(=O)[C@@H]1Cc1ccc(C(F)(F)F)cc1 [PP0775] ([NMeL]I[Aze][Sar][NPrPhe(4-CF3)][Sar][hPhe(3,5-F2-4-CF3)]P[X3][NMeGly(cPent)][NMeD]-Morpholide; lactam N-11)	–	B (a compound having 3 or more and less than 10 is denoted as B)	B (a compound having 3 or more and less than 10 is denoted as B)	417 nM	9.2 nM	–	–	–	–	–	–
CCC(CC)[C@H]1C(=O)N(C)[C@H](C(=O)N2CCCCC2)CC(=O)N(C)[C@H]2CCC/C=C/c3ccc(cc3)C[C@@H](C(=O)N(C)CC(=O)N[C@@H](CCc3ccc(Cl)c(Cl)c3)C(=O)N3CCC[C@H]3C(=O)NC3(CC(C)(C)C3)C(=O)N1C)N1CC/C=C\C[C@@H](C1=O)N(C)C(=O)CN(C)C(=O)[C@H]([C@@H](C)CC)NC2=O [PP3055]	1 nM	AA (a compound having 20 or more is denoted as AA)	A (a compound having 10 or more and less than 20 is denoted as A)	–	–	–	–	–	69.2 nM	–	–
CCO[C@@H]1C[C@H]2C(=O)NC3(CCC3)C(=O)N(C)[C@@H](C3CCCC3)C(=O)N(C)[C@H](C(=O)N(CC)CC)CC(=O)N(C)[C@@H](CC(C)C)C(=O)N[C@@H]([C@@H](C)CC)C(=O)N(C)CC(=O)N(C)[C@H]3C/C=C\CCN(C3=O)[C@@H](Cc3ccc(C)cc3)C(=O)N(C)CC(=O)N[C@@H](CCc3ccc(C(F)(F)F)c(OC)c3)C(=O)N2C1 [PP1851]	–	–	–	165 nM	–	1.8 nM	A (a compound having 10 or more and less than 20 is denoted as A)	A (a compound having 10 or more and less than 20 is denoted as A)	–	–	–
CCO[C@@H]1C[C@H]2C(=O)NC3(CCC3)C(=O)N(C)[C@@H](C3CCCC3)C(=O)N(C)[C@H](C(=O)N3CCOCC3)CC(=O)N(C)[C@@H](COC3CC3)C(=O)N[C@@H]([C@@H](C)CC)C(=O)N(C)CC(=O)N(C)[C@H]3CCCCCN(C3=O)[C@@H](Cc3ccc(C(F)(F)F)cc3)C(=O)N(C)CC(=O)N[C@@H](CCc3cc(F)c(C(F)(F)F)c(F)c3)C(=O)N2C1 [PP0852]	–	B (a compound having 3 or more and less than 10 is denoted as B)	B (a compound having 3 or more and less than 10 is denoted as B)	35.3 nM	0.46 nM	–	–	–	–	–	–
CCO[C@@H]1C[C@H]2C(=O)NC3(CCC3)C(=O)N(C)[C@@H](C3CCCC3)C(=O)N(C)[C@H](C(=O)N(C)CC)CC(=O)N(C)[C@@H](C3CCC3)C(=O)N[C@@H]([C@@H](C)CC)C(=O)N(C)CC(=O)N(C)[C@H]3C/C=C\CCN(C3=O)[C@@H](Cc3ccc(C(F)(F)F)cc3)C(=O)N(C)CC(=O)N[C@@H](CCc3ccc(C(F)(F)F)c(OC)c3)C(=O)N2C1 [PP2022]	–	–	–	2.7 nM	–	0.11 nM	–	–	–	A (a compound having 10 or more and less than 20 is denoted as A)	A (a compound having 10 or more and less than 20 is denoted as A)
CCO[C@@H]1C[C@H]2C(=O)NC3(CCC3)C(=O)N(C)[C@@H](C3CCCC3)C(=O)N(C)[C@H](C(=O)N3CCOCC3)CC(=O)N(C)[C@@H](CC(C)C)C(=O)N[C@@H]([C@@H](C)CC)C(=O)N(C)CC(=O)N(C)[C@H]3CCCCCN(C3=O)[C@@H](Cc3ccc(F)c(F)c3)C(=O)N(C)CC(=O)N[C@@H](CCc3cc(F)c(C(F)(F)F)c(F)c3)C(=O)N2C1 [PP0917]	–	B (a compound having 3 or more and less than 10 is denoted as B)	B (a compound having 3 or more and less than 10 is denoted as B)	25.2 nM	0.16 nM	–	–	–	–	–	–
C=CCN1CC(=O)N(C)[C@H]2C/C=C\CCN(C2=O)[C@@H](Cc2ccc(C)cc2)C(=O)N(C)CC(=O)N[C@@H](CCc2ccc(C(F)(F)F)c(OC)c2)C(=O)N2C[C@H](OCC)C[C@H]2C(=O)NC2(CC(C)(C)C2)C(=O)N(C)[C@@H](C2CCCC2)C(=O)N(C)[C@H](C(=O)N(C)C)CC(=O)N(C)[C@@H](CC(C)C)C(=O)N[C@@H]([C@@H](C)CC)C1=O [PP2058]	–	–	–	3.7 nM	–	0.21 nM	–	–	–	A (a compound having 10 or more and less than 20 is denoted as A)	A (a compound having 10 or more and less than 20 is denoted as A)
CCCN1C(=O)CN(C)C(=O)[C@@H]2CCN2C(=O)[C@H]([C@@H](C)CC)NC(=O)[C@H](CC(C)C)N(C)C(=O)C[C@@H](C(=O)N2CCOCC2)N(C)C(=O)[C@H](C2CCCC2)N(C)C(=O)C2(CCCC2)NC(=O)[C@@H]2COCCN2C(=O)[C@H](CCc2ccc(C(F)(F)F)c(Cl)c2)NC(=O)CN(C)C(=O)[C@@H]1Cc1ccc(C(F)(F)F)cc1 [PP0313] ([NMeL]I[Aze][Sar][NPrPhe(4-CF3)][Sar][hPhe(3-Cl-4-CF3)][Morpholine(3S-CO)][Ac5c][NMeGly(cPent)][NMeD]-Morpholide; lactam N-11)	2.2 nM	B (a compound having 3 or more and less than 10 is denoted as B)	C (A compound having a KD ratio of 0.1 or more and less than 3 is denoted as C)	56.6 nM	–	–	–	–	–	–	–
CCO[C@@H]1C[C@H]2C(=O)NC3(CC(C)(C)C3)C(=O)N(C)[C@@H](C3CCCC3)C(=O)N(C)[C@H](C(=O)N(C)C)CC(=O)N(C)[C@@H]([C@@H](C)OC)C(=O)N[C@@H]([C@@H](C)CC)C(=O)N3CCC[C@H]3C(=O)N(C)[C@H]3C/C=C\CCN(C3=O)[C@@H](Cc3ccc(C(F)(F)F)cc3)C(=O)N(C)CC(=O)N[C@@H](CCc3ccc(C(F)(F)F)c(Cl)c3)C(=O)N2C1 [PP3206]	0.43 nM	A (a compound having 10 or more and less than 20 is denoted as A)	A (a compound having 10 or more and less than 20 is denoted as A)	19.2 nM	–	–	–	–	–	–	–
CCCN(C)C(=O)[C@@H]1CC(=O)N(C)[C@@H](C2CCC2)C(=O)N[C@@H]([C@@H](C)CC)C(=O)N(C)CC(=O)N(C)[C@H]2C/C=C\CCN(C2=O)[C@@H](Cc2ccc(C(F)(F)F)cc2)C(=O)N(C)CC(=O)N[C@@H](CCc2cc(F)c(C(F)(F)F)c(F)c2)C(=O)N2C[C@H](OCC)C[C@H]2C(=O)NC2(CCC2)C(=O)N(C)[C@@H](C2CCCC2)C(=O)N1C [PP1998]	–	–	–	16.1 nM	–	0.17 nM	–	–	–	A (a compound having 10 or more and less than 20 is denoted as A)	B (a compound having 3 or more and less than 10 is denoted as B)
